Key:
Assay type in all cases: cell-based, human
Ishikawa = assay: Cell proliferation with the MTT assay; conditions: read-out: IC50 (Inhibitory concentration 50%), uterus, ER+, NR = IC50 not reach at the concentrations tested
Excerpt: (§1) Cell Proliferation with the MTT Assay (Uterine, Ovarian and Breast Cancer Cell Lines)
(§2) Several human uterine, ovarian and breast cancer cell lines were used to evaluate the antitumor activities of the new estrogen-linked platinum (II) complexes. The cytotoxicity of the platinum (II) complexes was done along with cisplatin as the control on both ER+ and ER— human uterine, ovarian and breast carcinomas. Cell proliferation was done with the MTT assay as described by J. Carmichael et al. (Cancer Res. 47, 943–946 (1987) see also C. H. J. Ford et al., Cancer Chemother. Pharmacol. 24, 295–301 (1986)). The MTT assay is based on the ability of viable cells to reduce a soluble colorless tetrazolium salt, 3-(4,5-dimethylthiazol-2-yl)-2,5-diphenyltetrazolium bromide (MTT), into an insoluble blue formazan derivative.

ZR-75-1 = assay: Cell proliferation with the MTT assay; conditions: read-out: IC50 (Inhibitory concentration 50%), ZR-75-1, breast, ER+, NR = IC50 not reach at the concentrations tested
Excerpt: as §1, §2

HEC-1A = assay: Cell proliferation with the MTT assay; conditions: read-out: IC50 (Inhibitory concentration 50%), uterus, ER−, NR = IC50 not reach at the concentrations tested
Excerpt: as §1, §2

MCF-7 [1] = assay: Cell proliferation with the MTT assay; conditions: read-out: IC50 (Inhibitory concentration 50%), MCF-7, breast, ER+, NR = IC50 not reach at the concentrations tested
Excerpt: as §1, §2

A2780wt = assay: Cell proliferation with the MTT assay; conditions: read-out: IC50 (Inhibitory concentration 50%), ovary, ER−, NR = IC50 not reach at the concentrations tested
Excerpt: as §1, §2

OVCAR-3 = assay: Cell proliferation with the MTT assay; conditions: read-out: IC50 (Inhibitory concentration 50%), OVCAR-3, ovary, ER+, NR = IC50 not reach at the concentrations tested
Excerpt: as §1, §2

SKOV-3 = assay: Cell proliferation with the MTT assay; conditions: read-out: IC50 (Inhibitory concentration 50%), SKOV-3, ovary, ER+, NR = IC50 not reach at the concentrations tested
Excerpt: as §1, §2

HeLa = assay: Cell proliferation with the MTT assay; conditions: read-out: IC50 (Inhibitory concentration 50%), uterus, ER−, NR = IC50 not reach at the concentrations tested
Excerpt: as §1, §2

MDA-MB-231 [2] = assay: Cell proliferation with the MTT assay; conditions: read-out: IC50 (Inhibitory concentration 50%), MDA-MB-231, breast, ER−, NR = IC50 not reach at the concentrations tested
Excerpt: as §1, §2

RL-95-2 = assay: Cell proliferation with the MTT assay; conditions: read-out: IC50 (Inhibitory concentration 50%), RL-95-2, uterus, ER+, NR = IC50 not reach at the concentrations tested
Excerpt: as §1, §2

A2780cp = assay: Cell proliferation with the MTT assay; conditions: read-out: IC50 (Inhibitory concentration 50%), ovary, ER−, NR = IC50 not reach at the concentrations tested
Excerpt: as §1, §2

KLE = assay: Cell proliferation with the MTT assay; conditions: read-out: IC50 (Inhibitory concentration 50%), uterus, ER−, NR = IC50 not reach at the concentrations tested
Excerpt: as §1, §2

HS578T = assay: Cell proliferation with the MTT assay; conditions: read-out: IC50 (Inhibitory concentration 50%), breast, ER−, NR = IC50 not reach at the concentrations tested
Excerpt: as §1, §2

MCF-7 [3] = assay: Cell proliferation with the SRB assay; conditions: read-out: IC50 (Inhibitory concentration 50%), MCF-7 (ER+) breast carcinoma
Excerpt: (§3) Cell Proliferation with the SRB Assay (Breast Cancer Cell Lines)
(§4) Two human breast tumor cell lines were used to evaluate the antitumor activities of the new estrogen-linked platinum (II) complexes. […] Cell proliferation was done with the sulforhodamine B (SRB) assay as described by Alley, M. C. et al. (Cancer Research. no 48, 589–601 (1988)) and Boyd, M. R. & Paull, K. D. (Drug Development Research. 34, 91–109, (1995)).

MDA-MB-231 [4] = assay: Cell proliferation with the SRB assay; conditions: read-out: IC50 (Inhibitory concentration 50%), MDA-MB-231 (ER−) breast carcinoma
Excerpt: as §3, §4

| Compound | IC50 (Ishikawa) | IC50 (ZR-75-1) | IC50 (HEC-1A) | IC50 (MCF-7 [1]) | IC50 (A2780wt) | IC50 (OVCAR-3) | IC50 (SKOV-3) | IC50 (HeLa) | IC50 (MDA-MB-231 [2]) | IC50 (RL-95-2) | IC50 (A2780cp) | IC50 (KLE) | IC50 (HS578T) | IC50 (MCF-7 [3]) | IC50 (MDA-MB-231 [4]) |
| --- | --- | --- | --- | --- | --- | --- | --- | --- | --- | --- | --- | --- | --- | --- | --- |
| 16β-hydroxymethyl-16α-[8′-(2-pyridin-2-yl-ethylamino)-3′,6′-dioxaoctyl]-1,3,5(10)-estratrien-3,17β-diol dichloroplatinum (II) [derivative 23] | 2.5 µM | 14.6 µM | 20.4 µM | 12.7 µM | 7.9 µM | 33.8 µM | 32.5 µM | 13.8 µM | 18.8 µM | 6.25 µM | 16 µM | 17.5 µM | 16.2 µM | – | – |
| N.N.[Cl][Pt][Cl] [Cisplatin, cis-diamminedichloroplatinum (II), reference compound] | 3.7 ± 0.9 µM | – | 20.8 ± 4.7 µM | – | – | – | – | – | – | 14.1 ± 0.5 µM | – | 24.3 ± 6.3 µM | – | 16.1 µM | 12.8 µM |
| C[C@]12CC[C@@H]3c4ccc(O)cc4CC[C@H]3[C@@H]1C[C@H](CCCCCCCCCCCNCc1ccccn1)[C@@H]2O.[Cl][Pt][Cl] [derivative 12 (∘ = 1), 16β-[11′-(2″-picolylamino)undecanyl]-1,3,5(10)-estratrien-3,17β-diol dichloroplatinate (II)] | 28 µM | – | 13 µM | – | – | – | – | – | – | 7 µM | – | 6 µM | – | 5.9 µM | 4.1 µM |
| C[C@]12CCC3c4ccc(O)cc4CCC3C1C[C@H](CCCCCCCCCCCNCCc1ccccn1)[C@@H]2O.[Cl][Pt][Cl] (stereo partly drawn) [derivative 12 (∘ = 2), 16β-[11′-(2″-pyridylethylamino)undecanyl]-1,3,5(10)-estratrien-3,17β-diol dichloroplatinate (II)] | 0.25 µM | – | 3.75 µM | – | – | – | – | – | – | 1 µM | – | 1.75 µM | – | < 0.78 µM | < 0.78 µM |
| C[C@]12CCC3c4ccc(O)cc4CCC3C1C[C@@](CO)(CCCCNCc1ccccn1)[C@@H]2O.[Cl][Pt][Cl] (stereo partly drawn) [derivative 14 (∘ = 1, p = 2), 16β-hydroxymethyl-16α-[4-(1-pyridin-2-yl-methylamino)-butyl]-1,3,5(10)-estratrien-3,17β-diol dichloroplatinum (II)] | 36 µM | > 40 µM | > 40 µM | > 40 µM | 33.7 µM | > 40 µM | > 40 µM | > 40 µM | > 40 µM | 40 µM | > 40 µM | > 40 µM | > 40 µM | – | – |
| C[C@]12CCC3c4ccc(O)cc4CCC3C1C[C@@](CO)(CCCCCCNCc1ccccn1)[C@@H]2O.[Cl][Pt][Cl] (stereo partly drawn) [derivative 14 (∘ = 1, p = 4), 16β-hydroxymethyl-16α-[6-(1-pyridin-2-yl-methylamino)-hexyl]-1,3,5(10)-estratrien-3,17β-diol dichloroplatinum (II)] | > 40 µM | > 40 µM | 19.5 µM | > 40 µM | 23.5 µM | > 40 µM | > 40 µM | 36.2 µM | > 40 µM | 16 µM | > 40 µM | 36.2 µM | 36.2 µM | – | – |
| C[C@]12CCC3c4ccc(O)cc4CCC3C1C[C@@](CO)(CCCCCCCCNCc1ccccn1)[C@@H]2O.[Cl][Pt][Cl] (stereo partly drawn) [derivative 14 (∘ = 1, p = 6), 16β-hydroxymethyl-16α-[8-(1-pyridin-2-yl-methylamino)-octyl]-1,3,5(10)-estratrien-3,17β-diol dichloroplatinum (II)] | 19.5 µM | 11.2 µM | 9.2 µM | 20 µM | 6.3 µM | 18.8 µM | 35 µM | 34.4 µM | 40 µM | 7.8 µM | 11 µM | 19.5 µM | 17.5 µM | – | – |
| C[C@]12CCC3c4ccc(O)cc4CCC3C1C[C@@](CO)(CCCCCCCCCCNCc1ccccn1)[C@@H]2O.[Cl][Pt][Cl] (stereo partly drawn) [derivative 14 (∘ = 1, p = 8), 16β-hydroxymethyl-16α-[10-(1-pyridin-2-yl-methylamino)-decyl]-1,3,5(10)-estratrien-3,17β-diol dichloroplatinum (II)] | > 40 µM | 27.6 µM | 15.6 µM | 17.7 µM | 10 µM | 40 µM | > 40 µM | 32.2 µM | 15.3 µM | 9.5 µM | 16.6 µM | 9.5 µM | 34.9 µM | – | – |
| C[C@]12CCC3c4ccc(O)cc4CCC3C1C[C@@](CO)(CCCCNCCc1ccccn1)[C@@H]2O.[Cl][Pt][Cl] (stereo partly drawn) [derivative 14 (∘ = 2, p = 2), 16β-hydroxymethyl-16α-[4-(2-pyridin-2-yl-ethylamino)-butyl]-1,3,5(10)-estratrien-3,17β-diol dichloroplatinum (II)] | 16 µM | 26.3 µM | 26.3 µM | 28.5 µM | 19.5 µM | 31.2 µM | 35.6 µM | 34.5 µM | > 40 µM | 10 µM | 30.5 µM | > 40 µM | 33 µM | – | – |
| C[C@]12CCC3c4ccc(O)cc4CCC3C1C[C@@](CO)(CCCCCCNCCc1ccccn1)[C@@H]2O.[Cl][Pt][Cl] (stereo partly drawn) [derivative 14 (∘ = 2, p = 4), 16β-hydroxymethyl-16α-[6-(2-pyridin-2-yl-ethylamino)-hexyl]-1,3,5(10)-estratrien-3,17β-diol dichloroplatinum (II)] | 20 µM | 11.4 µM | 6.4 µM | 7 µM | 5 µM | 12.5 µM | 12.5 µM | 8.9 µM | > 40 µM | 6.4 µM | 7 µM | 8.9 µM | 7.25 µM | – | – |
| C[C@]12CCC3c4ccc(O)cc4CCC3C1C[C@@](CO)(CCCCCCCCNCCc1ccccn1)[C@@H]2O.[Cl][Pt][Cl] (stereo partly drawn) [derivative 14 (∘ = 2, p = 6), 16β-hydroxymethyl-16α-[8′-(2-pyridin-2-yl-ethylamino)-octyl]-1,3,5(10)-estratrien-3,17β-diol dichloroplatinum (II)] | 8 µM | 4.6 µM | 2.1 µM | 6.4 µM | 3.3 µM | 5 µM | 4.8 µM | 4.6 µM | 10.5 µM | 0.1 µM | 3.6 µM | 2.7 µM | 4.3 µM | – | – |
| C[C@]12CCC3c4ccc(O)cc4CCC3C1C[C@@](CO)(CCCCCCCCCCNCCc1ccccn1)[C@@H]2O.[Cl][Pt][Cl] (stereo partly drawn) [derivative 14 (∘ = 2, p = 8), 16β-hydroxymethyl-16α-[10-(2-pyridin-2-yl-ethylamino)-decyl]-1,3,5(10)-estratrien-3,17β-diol dichloroplatinum (II)] | 2.2 µM | 2.5 µM | 2.4 µM | 4 µM | 1.65 µM | 9.5 µM | 5.8 µM | 6.8 µM | 4 µM | 3.1 µM | 2 µM | 3.7 µM | 3.3 µM | – | – |

Source: US7153844B2, “Estrogen-linked platinum (II) complexes as anticancer agents” (priority 2002, dated 2006)
